We go through 6 molecules from patent EP2906547B2, “COSMETIC COMPOSITIONS CONTAINING AT LEAST ONE HYDROTROPE AND AT LEAST ONE ACTIVE COMPOUND” (priority 2012, dated 2014).

In brackets after ≈: the same amount, converted by molar mass. Like-named read-outs stand apart in the source and are kept apart here. Bounds are passed on as bounds.

One series in a line: physchem. The protocol:
Another aspect of the text discloses a method for preparing the aqueous compositions comprising including in the composition at least one phenolic compound and at least one hydrotrope in an amount sufficient to solubilize the phenolic compound, such as a polyphenol, in water. A hydrotrope solution is prepared by completely dissolving one or more hydrotropic agents into water. At least one phenolic compound is then added in and mixed using a stirring bar or any other mixer. […] Everything is prepared at room temperature to keep the stability of the phenolic compound(s).
Everything is prepared at room temperature to keep the stability of the phenolic compounds.

Series [1] in a line: Solubility of baicalin in water as a function of pH. Format: physicochemical. Conditions: for solubility: water.
A short description of series [2]: Stability of solutions on dilution in water.
A short description of series [3]: Solubility of adenosine in water with and without hydrotropes.
The mark [4] stands for this setting: 5% nicotinamide and 5% caffeine, room temperature.
Setting [5] is: 5% nicotinamide, 5% caffeine, water.

For `O=C1c2c(O)cc(O)cc2O[C@H](c2ccc(O)c(O)c2)[C@H]1O` [Taxifolin], in the series “physchem” (setting [4]), the “Solubility in water with hydrotropes” value is listed as >1 % (w/w). The molecule further returned a solubility (thermodynamic) in “physchem” (water) of under 1000 µg/mL.

For `O=C(O)[C@H]1O[C@@H](Oc2cc3oc(-c4ccccc4)cc(=O)c3c(O)c2O)[C@H](O)[C@@H](O)[C@@H]1O` [Baicalin], the “pH at which degradation happens” value in series [1] (in water) is over 5. Also, the solubility in series [1] (pH 3, water, in water, pH 3, read-out: Solubility) was 16 µg/mL (≈ 35.8 µM); in series [1] (pH 3.5, water, in water, pH 3.5, read-out: Solubility) it was 21 µg/mL (≈ 47 µM); in series [1] (pH 4, water, in water, pH 4, read-out: Solubility), 40 µg/mL (≈ 89.6 µM); in series [1] (pH 4.5, water, in water, pH 4.5, read-out: Solubility), 84 µg/mL (≈ 188 µM); in series [1] (pH 4.5, water, without hydrotrope, natural pH -4.5, read-out: solubility in water), under 100 µg/mL; in series [1] (pH 5, water, in water, pH 5, read-out: Solubility) it was 350 µg/mL (≈ 784 µM). This molecule came in with a water solubility in the series “physchem” (2% caffeine in water) of 0.11%. Further, the “Solubility in water with hydrotropes” value in the series “physchem” (setting [5]) is listed as >1 % (w/w). The “amount solubilized in water” value in the series “physchem” (setting [5]) was “approximately 1%”. For the same molecule, the thermodynamic solubility in “physchem” (water) was under 100 µg/mL. Moreover, the “stability of dilution in water” value was “still stable” in series [2] (hydrotrope solution diluted in water) and “not stable any more” in series [2] (solution in organic solvent (e.g. PEG-4) diluted in water, crystallization or precipitation occurs).

On to `Oc1ccc(C=Cc2cc(O)cc(O)c2)cc1` [Resveratrol], for which the “Solubility in water with hydrotropes” value in “physchem” (setting [5]) is recorded as >0.75 % (w/w). The molecule further gave a solubility (thermodynamic) in the series “physchem” (water) of under 50 µg/mL.

For `Nc1ncnc2c1ncn2[C@@H]1O[C@H](CO)[C@@H](O)[C@H]1O` [Adenosine], the “Solubility in water with hydrotropes” value in series [3] (setting [4]) is given as >3 %(w/w). In series [3] (water), this molecule had a solubility (thermodynamic) of under 5000 µg/mL.

As to `O=c1oc2c(O)c(O)cc3c(=O)oc4c(O)c(O)cc1c4c23` [Ellagic acid], the “Solubility in water with hydrotropes” value in the series “physchem” (setting [4]) was >0.01 % (w/w). Also, the thermodynamic solubility in “physchem” (water) is under 10 µg/mL.

For the molecule `COc1ccc([C@@H]2CC(=O)c3c(O)cc(O[C@@H]4O[C@H](CO)[C@@H](O)[C@H](O)[C@H]4O[C@@H]4O[C@@H](C)[C@H](O)[C@@H](O)[C@H]4O)cc3O2)cc1O` [Neohesperidin], the “Solubility in water without hydrotropes” value in the series “physchem” (water) is <0.05 % (w/w).

The term solubility (thermodynamic) denotes solubility found after equilibrating the solid with the medium. The solubility is the dissolved amount per volume that the medium holds.
